Reference: ChEMBL document CHEMBL1201862, “PubChem BioAssay data set” (2004)
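A five-concentration, 48-hour dose response in 96-well plates underlies each endpoint, interpolated linearly between surrounding concentrations. Abbreviation: GI50, concentration required for 50% inhibition of growth.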 Active and inactive are the calls of the source. No stated cut-off is given here; in the data, active = GI50 up to about 1.1 µM and inactive = higher.

Legend:
Assay in all cases: DTP human tumour cell line panel, 48 h
M14 = system: M14
SF-539 = system: SF-539
ACHN = system: ACHN
NCI-H522 = system: NCI-H522
OVCAR-3 = system: OVCAR-3
HOP-62 = system: HOP-62
786-0 = system: 786-0
HCT-15 = system: HCT-15
UACC-257 = system: UACC-257
MOLT-4 = system: MOLT-4
TK-10 = system: TK-10
T47D = system: T47D
UO-31 = system: UO-31
NCI/ADR-RES = system: NCI/ADR-RES
MCF7 = system: MCF7
U-251 = system: U-251
DU-145 = system: DU-145
OVCAR-8 = system: OVCAR-8
HCC 2998 = system: HCC 2998
RXF 393 = system: RXF 393

Measured: GI50

CC(C)C(/N=C/c1ccccc1O)C(=O)O (centres undefined)
> 100 µM: HCT-15
inactive: M14 > 100 µM | SF-539 > 100 µM | ACHN > 100 µM | NCI-H522 > 100 µM | OVCAR-3 > 100 µM | HOP-62 > 100 µM | 786-0 > 100 µM | UACC-257 > 100 µM | MOLT-4 > 100 µM | TK-10 > 100 µM | T47D > 100 µM | UO-31 > 100 µM | NCI/ADR-RES > 100 µM | MCF7 > 100 µM | U-251 > 100 µM | DU-145 > 100 µM | OVCAR-8 > 100 µM

O=c1cc(CO)n(CCc2c[nH]c3ccccc23)cc1O
inactive: M14 47.1 µM | SF-539 > 100 µM | ACHN 66.5 µM | NCI-H522 24.7 µM | OVCAR-3 26.2 µM | HOP-62 62.7 µM | 786-0 34.8 µM | UACC-257 > 100 µM | MOLT-4 6.21 µM | TK-10 > 100 µM | T47D 24.5 µM | UO-31 49.1 µM | NCI/ADR-RES 32.3 µM | MCF7 25.1 µM | U-251 39.6 µM | DU-145 28.2 µM | OVCAR-8 69.7 µM
51.2 µM: HCT-15

CCOC(=O)/C(=C\Nc1c(C)n(C)n(-c2ccccc2)c1=O)C(=O)c1ccccc1
inactive: M14 > 100 µM | SF-539 > 100 µM | ACHN > 100 µM | NCI-H522 > 100 µM | OVCAR-3 > 100 µM | HOP-62 > 100 µM | 786-0 > 100 µM | UACC-257 > 100 µM | MOLT-4 > 100 µM | TK-10 > 100 µM | T47D > 100 µM | UO-31 > 100 µM | MCF7 > 100 µM | U-251 > 100 µM | HCC 2998 > 100 µM | RXF 393 > 100 µM | DU-145 > 100 µM
> 100 µM: HCT-15

N#Cc1c(N)n(-c2cccc(C(=O)O)c2)c(=O)c2cc([N+](=O)[O-])ccc12
> 100 µM: HCT-15
inactive: ACHN > 100 µM | 786-0 > 100 µM | UACC-257 > 100 µM | TK-10 > 100 µM | T47D > 100 µM | UO-31 > 100 µM | NCI/ADR-RES > 100 µM | U-251 > 100 µM | HCC 2998 > 100 µM | DU-145 > 100 µM | OVCAR-8 > 100 µM

CN(C)CCNC(=O)C1COc2cc(-c3cc(=O)c4ccccc4o3)ccc2O1 (centres undefined)
27.7 µM: HCT-15
inactive: M14 18.1 µM | SF-539 17.3 µM | ACHN 16.9 µM | NCI-H522 16.6 µM | OVCAR-3 20.5 µM | HOP-62 33 µM | 786-0 18.1 µM | UACC-257 18.5 µM | MOLT-4 15.7 µM | TK-10 29.6 µM | UO-31 74.3 µM | U-251 20.1 µM | HCC 2998 > 100 µM | RXF 393 21.4 µM | OVCAR-8 23.6 µM

CC1=NNC(=O)C1C1CC(c2c[nH]c3ccccc23)=NN(C(N)=O)C1=O (centres undefined)
inactive: M14 > 100 µM | SF-539 91.4 µM | ACHN 97.9 µM | NCI-H522 31.8 µM | OVCAR-3 > 100 µM | HOP-62 > 100 µM | 786-0 > 100 µM | UACC-257 > 100 µM | MOLT-4 33.7 µM | TK-10 > 100 µM | T47D 61 µM | UO-31 28.7 µM | NCI/ADR-RES > 100 µM | U-251 51.2 µM | RXF 393 52.1 µM | DU-145 > 100 µM | OVCAR-8 98.6 µM
37.8 µM: HCT-15

COc1ccc(/C(Cl)=C(\C=N/O)c2ccc(OC)c(OC)c2)cc1OC
82 µM: HCT-15
inactive: M14 51.3 µM | SF-539 > 100 µM | ACHN > 100 µM | NCI-H522 > 100 µM | OVCAR-3 > 100 µM | HOP-62 49.8 µM | 786-0 > 100 µM | UACC-257 > 100 µM | MOLT-4 > 100 µM | TK-10 > 100 µM | UO-31 > 100 µM | U-251 > 100 µM | HCC 2998 > 100 µM | RXF 393 > 100 µM | OVCAR-8 > 100 µM

C1=NN2C(c3ccccc3)=NOC2C2C(c3ccccc3)=NOC12 (centres undefined)
inactive: M14 > 100 µM | SF-539 > 100 µM | ACHN 98.6 µM | NCI-H522 42.9 µM | OVCAR-3 > 100 µM | HOP-62 > 100 µM | 786-0 > 100 µM | UACC-257 > 100 µM | TK-10 > 100 µM | UO-31 > 100 µM | NCI/ADR-RES 97.9 µM | MCF7 > 100 µM | HCC 2998 > 100 µM | RXF 393 > 100 µM | DU-145 > 100 µM | OVCAR-8 > 100 µM
> 100 µM: HCT-15

CN(C)/N=C1/CCC(C(F)(F)F)(C(F)(F)F)O1
inactive: M14 25.1 µM | SF-539 45.4 µM | ACHN 35.6 µM | NCI-H522 35.2 µM | OVCAR-3 18.5 µM | HOP-62 31.4 µM | 786-0 29.4 µM | MOLT-4 37.2 µM | TK-10 51.4 µM | T47D 33.2 µM | UO-31 28.4 µM | NCI/ADR-RES 26.6 µM | U-251 39 µM | HCC 2998 30.6 µM | RXF 393 32.6 µM | DU-145 47 µM
41.4 µM: HCT-15

Cc1ccc(S(=O)(=O)N2CCC2c2ccccc2)cc1 (centres undefined)
inactive: M14 > 100 µM | SF-539 > 100 µM | ACHN > 100 µM | NCI-H522 74 µM | OVCAR-3 81.5 µM | HOP-62 > 100 µM | 786-0 > 100 µM | UACC-257 47.3 µM | MOLT-4 37.8 µM | TK-10 > 100 µM | UO-31 23.1 µM | U-251 > 100 µM | HCC 2998 > 100 µM | RXF 393 84.5 µM | OVCAR-8 > 100 µM
> 100 µM: HCT-15

C[C@@]1(O)C2CC3CC1(c1ccccc1)CC(/C3=N/O)/C2=N\O (some centres undefined)
inactive: M14 > 100 µM | SF-539 > 100 µM | ACHN > 100 µM | NCI-H522 > 100 µM | OVCAR-3 > 100 µM | HOP-62 > 100 µM | 786-0 > 100 µM | UACC-257 > 100 µM | MOLT-4 > 100 µM | T47D > 100 µM | UO-31 > 100 µM | NCI/ADR-RES > 100 µM | U-251 > 100 µM | HCC 2998 > 100 µM | RXF 393 > 100 µM | DU-145 > 100 µM | OVCAR-8 > 100 µM
> 100 µM: HCT-15

O=c1c2ccccc2c2c3c1cccc3c1cccc3c(=O)c4ccccc4c2c31
inactive: M14 > 100 µM | SF-539 > 100 µM | ACHN > 100 µM | NCI-H522 > 100 µM | OVCAR-3 > 100 µM | HOP-62 > 100 µM | 786-0 > 100 µM | UACC-257 > 100 µM | MOLT-4 46.3 µM | TK-10 > 100 µM | UO-31 > 100 µM | U-251 > 100 µM | HCC 2998 > 100 µM | RXF 393 > 100 µM | OVCAR-8 > 100 µM
> 100 µM: HCT-15

C[C@H]1S[C@H](c2c(Cl)cccc2Cl)N2Cc3ccccc3N=C12
14.9 µM: HCT-15
inactive: M14 11.6 µM | SF-539 14.7 µM | ACHN 12.4 µM | OVCAR-3 11.4 µM | HOP-62 14 µM | 786-0 8.49 µM | UACC-257 16.6 µM | MOLT-4 8.83 µM | TK-10 17 µM | T47D 12.4 µM | UO-31 12.4 µM | MCF7 14.2 µM | U-251 23.4 µM | HCC 2998 14.4 µM | RXF 393 14.1 µM | DU-145 13.1 µM

O=C(/C=C/c1c(O)ccc2ccccc12)c1ccc([N+](=O)[O-])cc1
inactive: M14 19.8 µM | SF-539 37.8 µM | ACHN 22.1 µM | NCI-H522 17 µM | OVCAR-3 17.3 µM | HOP-62 > 100 µM | 786-0 24.5 µM | UACC-257 25.2 µM | MOLT-4 43.6 µM | TK-10 > 53.5 µM | UO-31 > 43 µM | U-251 46.5 µM | HCC 2998 97.9 µM | RXF 393 23.1 µM | OVCAR-8 37.2 µM
25.2 µM: HCT-15

COc1ccc(/C=C/[N+](=O)[O-])cc1
active: HCC 2998 < 0.01 µM
3.7 µM: HCT-15
inactive: M14 2.79 µM | SF-539 1.66 µM | ACHN 7.48 µM | NCI-H522 20.4 µM | OVCAR-3 3.61 µM | HOP-62 8.07 µM | 786-0 3.75 µM | UACC-257 2.94 µM | MOLT-4 2.8 µM | TK-10 13 µM | UO-31 11.3 µM | NCI/ADR-RES 30.7 µM | MCF7 2.02 µM | U-251 4.03 µM | DU-145 6.52 µM | OVCAR-8 2.67 µM

CC(=O)O[C@H]1CC2C(C3CCC(C(C)CCC(=O)O)[C@]31C)[C@H](OC(C)=O)C[C@@H]1CC3(CC[C@]21C)OOC1(CC[C@]2(C)C4C[C@H](OC(C)=O)[C@]5(C)C(C(C)CCC(=O)O)CCC5C4[C@H](OC(C)=O)C[C@@H]2C1)OO3 (some centres undefined)
inactive: M14 2.53 µM | ACHN 1.71 µM | NCI-H522 1.42 µM | OVCAR-3 1.8 µM | HOP-62 1.83 µM | 786-0 2.76 µM | UACC-257 2.15 µM | MOLT-4 2.03 µM | TK-10 2.75 µM | UO-31 1.74 µM | NCI/ADR-RES 2.63 µM | MCF7 2.7 µM | U-251 1.28 µM | HCC 2998 2.03 µM | RXF 393 1.36 µM | DU-145 1.2 µM | OVCAR-8 1.66 µM
2.22 µM: HCT-15
